Patent US7410975B2, “Small molecule toll-like receptor (TLR) antagonists” (Coley Pharmaceutical Group, Inc., priority 2003, dated 2008)

Molecular target: T1, human TLR3 (hTLR3) (Homo sapiens, UniProt O15455)
T1 construct: expressed in transfected cells
T1 sequence (O15455 24-904): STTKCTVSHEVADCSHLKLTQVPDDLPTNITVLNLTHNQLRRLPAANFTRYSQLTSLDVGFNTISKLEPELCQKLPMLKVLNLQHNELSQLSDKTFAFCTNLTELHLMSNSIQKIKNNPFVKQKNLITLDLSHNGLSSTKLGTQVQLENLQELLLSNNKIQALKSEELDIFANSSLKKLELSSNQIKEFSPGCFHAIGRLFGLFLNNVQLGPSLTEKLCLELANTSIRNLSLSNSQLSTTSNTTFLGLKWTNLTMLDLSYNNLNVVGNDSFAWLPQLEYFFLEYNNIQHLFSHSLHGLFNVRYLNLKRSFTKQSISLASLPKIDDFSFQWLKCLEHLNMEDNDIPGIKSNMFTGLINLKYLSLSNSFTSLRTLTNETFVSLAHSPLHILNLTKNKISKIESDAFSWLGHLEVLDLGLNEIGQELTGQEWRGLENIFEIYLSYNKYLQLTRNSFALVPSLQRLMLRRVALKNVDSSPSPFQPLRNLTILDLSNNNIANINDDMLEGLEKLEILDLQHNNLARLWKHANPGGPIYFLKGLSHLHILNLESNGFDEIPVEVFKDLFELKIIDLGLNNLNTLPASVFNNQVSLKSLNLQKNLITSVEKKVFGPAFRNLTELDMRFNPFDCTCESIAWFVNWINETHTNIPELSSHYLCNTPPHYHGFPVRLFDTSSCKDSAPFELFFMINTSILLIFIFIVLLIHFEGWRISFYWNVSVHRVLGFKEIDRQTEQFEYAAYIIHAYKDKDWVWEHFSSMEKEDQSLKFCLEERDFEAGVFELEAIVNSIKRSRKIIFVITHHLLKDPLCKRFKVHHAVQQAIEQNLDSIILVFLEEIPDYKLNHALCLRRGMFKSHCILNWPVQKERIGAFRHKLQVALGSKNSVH
Experiment: Antagonist screen, hTLR3-NFκB-293 cells, NF-κB-luciferase reporter, with EC50 of poly(I:C)
Type: cell-based
Conditions: compound at 0.5, 5, 50 μg/ml; EC50 concentration of poly(I:C); 16 h; NF-κB-luciferase
Method: The method is described in greater detail as follows. The cells for each individual cell clone (hTLR3-NFκB-293, hTLR7-NFκB-293, hTLR8-NFκB-293 and hTLR9-NFκB-293) were counted and seeded one day before the stimulation at 1.5×10^4 cells per well in 96-well cell culture plates. To become adherent the cells were incubated after seeding overnight at 37° C. in 5% CO2 humidified air.
The screen for each compound was performed at the same time for all of the receptors TLR3, TLR7, TLR8 and TLR9. Up to fifteen test compounds, each assayed in duplicate at each of three different final concentrations (0.5 μg/ml, 5 μg/ml, and 50 μg/ml), were used for 16 h cell stimulation on a single multiwell culture plate. A 4× final concentration master plate was created to prepare the different test compounds before they were added to the cells.
Controls were added as duplicates individually for each cell clone on the cell culture plate. Positive controls were used as follows (final concentrations): 50 μg/ml poly(I:C) for hTLR3-NFκB-293; 8 μM resiquimod (R848) for hTLR7-NFκB-293; 30 μM R848 for hTLR8-NFκB-293; and 2.5 μM CpG-ODN 2006 for hTLR9-NFκB-293. Media alone was used as negative control. After addition of controls and small molecules, the cell clones were additionally stimulated with the EC50 concentration of the appropriate receptor-specific ligand.
The mean value of wells H2 and H5 (each with cells and EC50 concentration of the appropriate receptor-specific ligand) divided by the mean of wells H3 and H6 (each with cells alone) yielded the baseline response (i.e., fold induction of luciferase activity) to EC50 concentration of the appropriate receptor-specific ligand.
After 16 h stimulation the supernatant was removed and the cells treated with lysis buffer and stored at −80° C. before measuring.
For each screen result a graphical documentation was performed.
The baseline result (measured with addition of the EC50 concentration of the receptor-specific ligand) for each cell culture plate was measured as described above. Antagonistic effects were measured by down regulation compared to the baseline. Antagonists were scored as follows: • 13: compounds for which there was clear down regulation at 0.5 μg/ml, 5 μg/ml, and 50 μg/ml; • 12: compounds for which there was clear down regulation at 5 μg/ml and 50 μg/ml; • 11: compounds for which there was clear down regulation only at 50 μg/ml; • —: compounds for which there was no clear down regulation even at 50 μg/ml. Agonists
Results were expressed as fold induction over baseline luciferase activity measured in the absence of poly(I:C). […] Additional screening was performed in like manner using additional small molecules selected from another library or specifically prepared for this purpose. Scoring is reported as above but as applied to TLR3.

## CC1NCCc2c1[nH]c1ccccc21.Cl (racemic) [compound 619, Eleagnine hydrochloride (R,S)]
  hTLR3 (inhibitory effect, antagonist score): — (compounds for which there was no clear down regulation even at 50 μg/ml)

## O=C1c2c(O)cccc2Cc2cccc(O)c21 [compound 43, Anthralin]
  hTLR3 (inhibitory effect, antagonist score): — (compounds for which there was no clear down regulation even at 50 μg/ml)

## CN(C)CCCN1c2ccccc2Sc2ccc(C(F)(F)F)cc21.Cl [compound 53, Triflupromazinehydrochloride]
  hTLR3 (inhibitory effect, antagonist score): 11 (compounds for which there was clear down regulation only at 50 μg/ml)

## CN(C)CCCN1c2ccccc2Sc2ccc(Cl)cc21.Cl [compound 64, Chlorpromazinehydrochloride]
  hTLR3 (inhibitory effect, antagonist score): 11 (compounds for which there was clear down regulation only at 50 μg/ml)

## CN(C)CCC=C1c2ccccc2CCc2ccccc21.Cl [compound 74, Amitryptilinehydrochloride]
  hTLR3 (inhibitory effect, antagonist score): — (compounds for which there was no clear down regulation even at 50 μg/ml)

## OC(c1ccccc1)(c1ccccc1)C1CCNCC1 [compound 93, Azacyclonol]
  hTLR3 (inhibitory effect, antagonist score): — (compounds for which there was no clear down regulation even at 50 μg/ml)

## CN1Cc2c(N)cccc2C(c2ccccc2)C1.O=C(O)/C=C\C(=O)O (stereo not drawn) [compound 108, Nomifensine maleate]
  hTLR3 (inhibitory effect, antagonist score): — (compounds for which there was no clear down regulation even at 50 μg/ml)

## C[C@]12N[C@H](Cc3ccccc31)c1ccccc12.O=C(O)/C=C\C(=O)O [compound 109, Dizocilpine maleate]
  hTLR3 (inhibitory effect, antagonist score): — (compounds for which there was no clear down regulation even at 50 μg/ml)

## OCCN1CCN(CCCN2c3ccccc3Sc3ccc(Cl)cc32)CC1 [compound 125, Perphenazine]
  hTLR3 (inhibitory effect, antagonist score): — (compounds for which there was no clear down regulation even at 50 μg/ml)

## CN1CCN(CCCN2c3ccccc3Sc3ccc(S(=O)(=O)N(C)C)cc32)CC1.CS(=O)(=O)O.CS(=O)(=O)O [compound 149, Thioproperasinedimesylate]
  hTLR3 (inhibitory effect, antagonist score): — (compounds for which there was no clear down regulation even at 50 μg/ml)

## Clc1ccccc1C(c1ccccc1)(c1ccccc1)n1ccnc1 [compound 267, Clotrimazole]
  hTLR3 (inhibitory effect, antagonist score): — (compounds for which there was no clear down regulation even at 50 μg/ml)

## CC(NCCC(c1ccccc1)c1ccccc1)c1ccccc1.Cl (stereo not drawn) [compound 270, Fendiline hydrochloride]
  hTLR3 (inhibitory effect, antagonist score): 11 (compounds for which there was clear down regulation only at 50 μg/ml)

## CN1CCC(=C2c3ccccc3Sc3ccccc32)CC1.O=C(O)/C=C\C(=O)O [compound 294, Pimethixene maleate]
  hTLR3 (inhibitory effect, antagonist score): 11 (compounds for which there was clear down regulation only at 50 μg/ml)

## O=c1[nH]c2ccccc2n1C1CCN(CCCC(c2ccc(F)cc2)c2ccc(F)cc2)CC1 [compound 308, Pimozide]
  hTLR3 (inhibitory effect, antagonist score): 12 (compounds for which there was clear down regulation at 5 μg/ml and 50 μg/ml)

## Cl.Cl.OCCN1CCN(CC/C=C2/c3ccccc3Sc3ccc(C(F)(F)F)cc32)CC1 [compound 340, Flupentixoldihydrochloride cis-(Z)]
  hTLR3 (inhibitory effect, antagonist score): 11 (compounds for which there was clear down regulation only at 50 μg/ml)

## CNCCCN1c2ccccc2CCc2ccccc21.Cl [compound 343, Desipraminehydrochloride]
  hTLR3 (inhibitory effect, antagonist score): 11 (compounds for which there was clear down regulation only at 50 μg/ml)

## CN(C)CC/C=C1/c2ccccc2Sc2ccc(Cl)cc21.Cl [compound 348, Chlorprothixenehydrochloride]
  hTLR3 (inhibitory effect, antagonist score): 11 (compounds for which there was clear down regulation only at 50 μg/ml)

## Cc1cccc(C)c1NC(=O)CN1CCN(CCCC(c2ccc(F)cc2)c2ccc(F)cc2)CC1 [compound 381, Lidoflazine]
  hTLR3 (inhibitory effect, antagonist score): 11 (compounds for which there was clear down regulation only at 50 μg/ml)

## Cl.Cl.Fc1ccc(C(OCCN2CCN(CCCc3ccccc3)CC2)c2ccc(F)cc2)cc1 [compound 386, GBR 12909hydrochloride]
  hTLR3 (inhibitory effect, antagonist score): 11 (compounds for which there was clear down regulation only at 50 μg/ml)

## Nc1cccc2c1C(=O)c1cccc(N)c1C2=O [compound 413, Anthraquinone,1,5-diamino]
  hTLR3 (inhibitory effect, antagonist score): 11 (compounds for which there was clear down regulation only at 50 μg/ml)

## CN1CCC2C(C1)c1ccccc1N2Cc1ccccc1 (stereo not drawn) [compound 455, Mebhydroline 1,5 naphtalenedisulfonate]
  hTLR3 (inhibitory effect, antagonist score): — (compounds for which there was no clear down regulation even at 50 μg/ml)

## Cc1cccc(CN2CCN(C(c3ccccc3)c3ccc(Cl)cc3)CC2)c1.Cl.Cl (stereo not drawn) [compound 457, Meclozinedihydrochioride]
  hTLR3 (inhibitory effect, antagonist score): — (compounds for which there was no clear down regulation even at 50 μg/ml)

## c1ccc2c(c1)[nH]c1cnccc12 [compound 470, norharman]
  hTLR3 (inhibitory effect, antagonist score): 11 (compounds for which there was clear down regulation only at 50 μg/ml)

## CN(C)CC/C=C1/c2ccccc2CSc2ccccc21.Cl [compound 488, Dosulepin hydrochloride]
  hTLR3 (inhibitory effect, antagonist score): 11 (compounds for which there was clear down regulation only at 50 μg/ml)

## CN1CCN(C(c2ccccc2)c2ccccc2)CC1.Cl [compound 510, Cyclizine hydrochloride]
  hTLR3 (inhibitory effect, antagonist score): — (compounds for which there was no clear down regulation even at 50 μg/ml)

## CN1CCCCC1CCN1c2ccccc2Sc2ccc([S+](C)[O-])cc21.O=S(=O)(O)c1ccccc1 (stereo not drawn) [compound 529, Mesoridazine besylate]
  hTLR3 (inhibitory effect, antagonist score): — (compounds for which there was no clear down regulation even at 50 μg/ml)

## CCOC(=O)Oc1c(OC)cc(C(=O)O[C@@H]2C[C@@H]3CN4CCc5c([nH]c6cc(OC)ccc56)[C@H]4C[C@@H]3[C@H](C(=O)OC)[C@H]2OC)cc1OC [compound 564, Syrosingopine]
  hTLR3 (inhibitory effect, antagonist score): 13 (compounds for which there was clear down regulation at 0.5 μg/ml, 5 μg/ml, and 50 μg/ml)

## COC(=O)[C@H]1[C@H]2C[C@@H]3c4[nH]c5cc(OC)ccc5c4CCN3C[C@H]2C[C@@H](OC(=O)/C=C/c2cc(OC)c(OC)c(OC)c2)[C@@H]1OC [compound 568, Rescinnamin]
  hTLR3 (inhibitory effect, antagonist score): — (compounds for which there was no clear down regulation even at 50 μg/ml)

## CC(=O)c1ccc2c(c1)N(CCCN(C)C)c1ccccc1S2.O=C(O)/C=C\C(=O)O [compound 576, Acetopromazinemaleate salt]
  hTLR3 (inhibitory effect, antagonist score): 11 (compounds for which there was clear down regulation only at 50 μg/ml)

## COC(=O)C1=CO[C@@H](C)[C@@H]2CN3CCc4c([nH]c5ccccc45)[C@@H]3C[C@H]12 [compound 593, Tetrahydroalstonine]
  hTLR3 (inhibitory effect, antagonist score): — (compounds for which there was no clear down regulation even at 50 μg/ml)
